Measurements reported in patent publication EP0923292B1, “IMPROVED METHOD FOR SYSTEMIC ADMINISTRATION OF 2,4-DIENOIC ACID-TYPE INSECTICIDES TO TERRESTRIAL MAMMALS” (priority 1996, dated 1998).

How the values were obtained:
C. felis = experiment: Systemic ovicidal activity upon oral administration (initial bolus plus daily diet) to host dogs (Example 3); type: in vivo, C. felis (host: dogs); conditions: eggs collected from the dogs, week 4
Excerpt: Eleven days before the administration of the first gelatin capsule (i.e., on Day -11), and weekly thereafter through Day 59, each dog was infested with approximately 200 one-to two-week-old, unfed adult C. fells fleas of mixed sex ratio. Each dog was restrained for about one minute while the fleas were released along the dorsum.
Flea eggs were collected on Days -7, 0, 1, 2, 4, 7, and weekly thereafter through Day 63. Prior to egg collection, the cages in which the dogs were housed and the collection trays were rinsed with isopropyl alcohol, and the water was turned off, feed bowls and resting pads were removed from each cage. […] Using a dissecting microscope and a fine tipped artist brush, 100 flea eggs were counted from the sweepings of each dog and separated into four replicates of 25 eggs each. […] Seventy two hours after collection, larvae emergence was determined. Both dead and live larvae were counted to determine the ovicidal effect of the treatment. […]
Three days prior to the week 4 data point, each dog was infested with fleas in the manner described in Example 2. At week 4, flea eggs were collected from the dogs themselves in the manner described in Example 2, and the percent inhibition of egg hatch for the fleas collected in this manner was determined as in Example 2.

[1] = Concentration of (S)-methoprene on dog hair following oral administration (HPLC); type: in vivo, dogs; conditions: oral 50 mg/kg one time on Day 0; for concentration at 17 day / concentration at 21 day / concentration at 1 day / concentration at 3 day / concentration at 5 day / concentration at 7 day / concentration at 10 day / concentration at 14 day / concentration at 28 day: dog, hair, po, 50 mg/kg; for concentration at 1 day: day 1
Excerpt: Twelve random-bred adult dogs of various sex and medium hair coat were selected based on hair coat, health, and individual habits. The twelve dogs were grouped into two groups of six dogs each. Dog weights ranged from 22.5 kg to 35.0 kg, and the various weights and each sex were represented in each group. The dogs received a measured amount of Science Diet maintenance dog food daily and water was available. The two groups of dogs were housed separately. The dogs of Group 1 were not given any treatments, whereas those of Group 2 were each given 50 mg/kg of technical (S)-methoprene one time only at the start of the study (Day 0).
Blood samples were taken periodically by drawing the samples into 10 cc disposable syringes and transferring them to labeled 5 mL heparinized EDTA vacutainers treated with […] of paraoxon solution at a concentration of 1 x 10^-2 M. The blood samples were frozen until ready for analysis. Hair samples were clipped from the dogs on the same days that blood samples were taken, then placed in labeled freezer jars with aluminum foil seals, and frozen.
To analyze the dog hair, a known weight (4-8 g) of each dog hair sample was extracted in hexane, the extract evaporated and the residue reconstituted in 2 mL of hexane. One mL of the extract was cleaned by solid-phase extraction using a 3 cc/500 mg silica cartridge. The (S)-methoprene was then eluted from the cartridge with 5% ethyl acetate/hexane. The residue was reconstituted in 1 mL acetonitrile and analyzed by reversed-phase high-pressure liquid chromatography (HPLC) on a C18 column (250 x 4.6 mm, 10-micron diameter) using diode array detection at a wavelength of 264 nm, with a mobile phase of 90:10 methanol:water at 1.5 mUmin and an injection volume of […]. The (S)-methoprene peak eluted at about 5.1 minutes. The concentration of (S)-methoprene was calculated based on a calibration curve generated by concurrently running a series of standards. The limit of quantitation was about 20 ppb.

COC(C)(C)CCC[C@H](C)C/C=C/C(C)=C/C(=O)OC(C)C [(S)-Methoprene, 1-isopropyl (E,E)-11-methoxy-3,7,11-trimethyl dodecadi-2,4-enoate]
Percent Inhibition of Flea Egg Hatching (C. felis; initial bolus 25 mg/kg then daily diet 0.01% (S)-methoprene): 100%
Percent Inhibition of Flea Egg Hatching (C. felis; initial bolus 50 mg/kg then daily diet 0.02% (S)-methoprene): 100%
Concentration of (S)-Methoprene on Dog Hair ([1]; Dog #60, day 3): 33,900 ppb
Concentration of (S)-Methoprene on Dog Hair ([1]; Dog #60, day 5): 12,500 ppb
Concentration of (S)-Methoprene on Dog Hair ([1]; Dog #60, day 7): 2,400 ppb
Concentration of (S)-Methoprene on Dog Hair ([1]; Dog #60, day 10): 12,300 ppb
Concentration of (S)-Methoprene on Dog Hair ([1]; Dog #60, day 14): 5,300 ppb
Concentration of (S)-Methoprene on Dog Hair ([1]; Dog #60, day 17): 3,600 ppb
Concentration of (S)-Methoprene on Dog Hair ([1]; Dog #60, day 21): 12,100 ppb
Concentration of (S)-Methoprene on Dog Hair ([1]; Dog #60, day 28): 5,200 ppb
concentration at 17 day ([1]; Dog #98, day 17): 345 ng/g
concentration at 17 day ([1]; Dog #528, day 17): 137 ng/g
concentration at 21 day ([1]; Dog #528, day 21): 31.2 ng/g
concentration at 17 day ([1]; Dog #529, day 17): 39.7 ng/g
concentration at 21 day ([1]; Dog #529, day 21): 93.5 ng/g
concentration at 17 day ([1]; Dog #532, day 17): 331 ng/g
concentration at 17 day ([1]; Dog #535, day 17): 1090 ng/g
concentration at 1 day ([1]; random-bred, Dog #60): 6000 ng/g
concentration at 1 day ([1]; random-bred, Dog #98): 47.4 ng/g
concentration at 3 day ([1]; random-bred, Dog #98, day 3): 125 ng/g
concentration at 5 day ([1]; random-bred, Dog #98, day 5): 161 ng/g
concentration at 7 day ([1]; random-bred, Dog #98, day 7): 126 ng/g
concentration at 10 day ([1]; random-bred, Dog #98, day 10): 167 ng/g
concentration at 14 day ([1]; random-bred, Dog #98, day 14): 200 ng/g
concentration at 21 day ([1]; random-bred, Dog #98, day 21): 231 ng/g
concentration at 28 day ([1]; random-bred, Dog #98, day 28): 287 ng/g
concentration at 1 day ([1]; random-bred, Dog #528): 76.6 ng/g
concentration at 3 day ([1]; random-bred, Dog #528, day 3): 199 ng/g
concentration at 5 day ([1]; random-bred, Dog #528, day 5): 114 ng/g
concentration at 7 day ([1]; random-bred, Dog #528, day 7): 150 ng/g
concentration at 10 day ([1]; random-bred, Dog #528, day 10): 126 ng/g
concentration at 14 day ([1]; random-bred, Dog #528, day 14): 103 ng/g
concentration at 28 day ([1]; random-bred, Dog #528, day 28): 47.2 ng/g
concentration at 1 day ([1]; random-bred, Dog #529): 86.6 ng/g
concentration at 3 day ([1]; random-bred, Dog #529, day 3): 82.2 ng/g
concentration at 5 day ([1]; random-bred, Dog #529, day 5): 58.3 ng/g
concentration at 7 day ([1]; random-bred, Dog #529, day 7): 34.5 ng/g
concentration at 10 day ([1]; random-bred, Dog #529, day 10): 60.5 ng/g
concentration at 14 day ([1]; random-bred, Dog #529, day 14): 85.5 ng/g
concentration at 28 day ([1]; random-bred, Dog #529, day 28): 106 ng/g
concentration at 3 day ([1]; random-bred, Dog #532, day 3): 62.4 ng/g
concentration at 5 day ([1]; random-bred, Dog #532, day 5): 98.6 ng/g
concentration at 7 day ([1]; random-bred, Dog #532, day 7): 117 ng/g
concentration at 10 day ([1]; random-bred, Dog #532, day 10): 255 ng/g
concentration at 14 day ([1]; random-bred, Dog #532, day 14): 350 ng/g
concentration at 21 day ([1]; random-bred, Dog #532, day 21): 342 ng/g
concentration at 28 day ([1]; random-bred, Dog #532, day 28): 230 ng/g
concentration at 1 day ([1]; random-bred, Dog #535): 49.3 ng/g
concentration at 3 day ([1]; random-bred, Dog #535, day 3): 424 ng/g
concentration at 5 day ([1]; random-bred, Dog #535, day 5): 276 ng/g
concentration at 7 day ([1]; random-bred, Dog #535, day 7): 294 ng/g
concentration at 10 day ([1]; random-bred, Dog #535, day 10): 681 ng/g
concentration at 14 day ([1]; random-bred, Dog #535, day 14): 800 ng/g
concentration at 21 day ([1]; random-bred, Dog #535, day 21): 675 ng/g
concentration at 28 day ([1]; random-bred, Dog #535, day 28): 461 ng/g
